Legend:
Assay in all cases: relative viability (nuclei count vs DMSO), 5 days (fraction); higher = more cells survive
[1] = compound: COC1=C(C=C(C=C1)C2=CC3=NC=CN3C(=N2)NC4=C(C=CC=N4)C(=O)N)OC [BAY61-3606] + C[C@]1(O)C[C@@H](c2nc(-c3ccc4ccc(-c5ccccc5)nc4c3)c3c(N)nccn32)C1 [Linsitinib] (partner 1 µM)
Outline: (§1)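 Relative viability equals treated-well nuclei counts divided by vehicle-well nuclei counts. Counts came from 4× images of lung cancer cell lines grown in 1536-well plates for 5 days after pin-tool dosing on the day after seeding. Dosing used one drug alone or a fixed anchor-drug dose plus five library-drug doses (not always all listed) in √10 steps, and values are medians of duplicate plates.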

[2] = compound: COC1=C(C=C(C=C1)C2=CC3=NC=CN3C(=N2)NC4=C(C=CC=N4)C(=O)N)OC [BAY61-3606] + C[C@@H](Oc1cc(-c2cnn(C3CCNCC3)c2)cnc1N)c1c(Cl)ccc(F)c1Cl [Crizotinib] (partner 1 µM)
Outline: as §1

[3] = compound: COC1=C(C=C(C=C1)C2=CC3=NC=CN3C(=N2)NC4=C(C=CC=N4)C(=O)N)OC [BAY61-3606] + COc1cc2c(Oc3ccc(NC(=O)C4(C(=O)Nc5ccc(F)cc5)CC4)cc3F)ccnc2cc1OCCCN1CCOCC1 [Foretinib] (partner 0.25 µM)
Outline: as §1

[4] = compound: COc1cccc2c1C(=O)c1c(O)c3c(c(O)c1C2=O)C[C@@](O)(C(=O)CO)C[C@@H]3O[C@H]1C[C@H](N)[C@H](O)[C@H](C)O1 [Doxorubicin] + CS(=O)(=O)N1CCN(Cc2cc3nc(-c4cccc5[nH]ncc45)nc(N4CCOCC4)c3s2)CC1 [Pictilisib] (partner 1 µM)
Outline: as §1

Cell Line: COR-L 105
- relative viability ([1]; first compound 0.02 µM): 1.11
- relative viability ([1]; first compound 0.06325 µM): 1.02
- relative viability ([1]; first compound 0.2 µM): 0.926
- relative viability ([1]; first compound 0.6325 µM): 0.812
- relative viability ([1]; first compound 2 µM): 0.616
- relative viability ([2]; first compound 0.02 µM): 0.762
- relative viability ([2]; first compound 0.06325 µM): 0.569
- relative viability ([2]; first compound 0.2 µM): 0.674
- relative viability ([2]; first compound 0.6325 µM): 0.541
- relative viability ([2]; first compound 2 µM): 0.421
- relative viability ([3]; first compound 0.02 µM): 1.32
- relative viability ([3]; first compound 0.06325 µM): 1.36
- relative viability ([3]; first compound 0.2 µM): 0.884
- relative viability ([3]; first compound 0.6325 µM): 1.05
- relative viability ([3]; first compound 2 µM): 0.605
- relative viability ([4]; first compound 0.001 µM): 0.463
- relative viability ([4]; first compound 0.003162 µM): 0.444
- relative viability ([4]; first compound 0.01 µM): 0.355
- relative viability ([4]; first compound 0.03162 µM): 0.283
- relative viability ([4]; first compound 0.1 µM): 0.277

Cell Line: LK-2
- relative viability ([1]; first compound 0.02 µM): 0.487
- relative viability ([1]; first compound 0.06325 µM): 0.529
- relative viability ([1]; first compound 0.2 µM): 0.691
- relative viability ([1]; first compound 0.6325 µM): 0.834
- relative viability ([1]; first compound 2 µM): 0.412
- relative viability ([2]; first compound 0.02 µM): 0.227
- relative viability ([2]; first compound 0.06325 µM): 0.216
- relative viability ([2]; first compound 0.2 µM): 0.228
- relative viability ([2]; first compound 0.6325 µM): 0.202
- relative viability ([2]; first compound 2 µM): 0.201
- relative viability ([3]; first compound 0.02 µM): 1.24
- relative viability ([3]; first compound 0.06325 µM): 1.19
- relative viability ([3]; first compound 0.2 µM): 1
- relative viability ([3]; first compound 0.6325 µM): 1.32
- relative viability ([3]; first compound 2 µM): 0.768
- relative viability ([4]; first compound 0.001 µM): 0.498
- relative viability ([4]; first compound 0.003162 µM): 0.457
- relative viability ([4]; first compound 0.01 µM): 0.534
- relative viability ([4]; first compound 0.03162 µM): 0.498
- relative viability ([4]; first compound 0.1 µM): 0.442

Cell Line: 201T
- relative viability ([1]; first compound 0.02 µM): 1.05
- relative viability ([1]; first compound 0.06325 µM): 0.975
- relative viability ([1]; first compound 0.2 µM): 0.972
- relative viability ([1]; first compound 0.6325 µM): 1.01
- relative viability ([1]; first compound 2 µM): 1.07
- relative viability ([2]; first compound 0.02 µM): 1.1
- relative viability ([2]; first compound 0.06325 µM): 0.996
- relative viability ([2]; first compound 0.2 µM): 1.01
- relative viability ([2]; first compound 0.6325 µM): 1.02
- relative viability ([2]; first compound 2 µM): 1.03
- relative viability ([3]; first compound 0.02 µM): 1.19
- relative viability ([3]; first compound 0.06325 µM): 1.05
- relative viability ([3]; first compound 0.2 µM): 1.13
- relative viability ([3]; first compound 0.6325 µM): 1.17
- relative viability ([3]; first compound 2 µM): 1.11
- relative viability ([4]; first compound 0.001 µM): 0.666
- relative viability ([4]; first compound 0.003162 µM): 0.648
- relative viability ([4]; first compound 0.01 µM): 0.658
- relative viability ([4]; first compound 0.03162 µM): 0.719
- relative viability ([4]; first compound 0.1 µM): 0.68

Cell Line: HCC-78
- relative viability ([1]; first compound 0.02 µM): 0.742
- relative viability ([1]; first compound 0.06325 µM): 0.456
- relative viability ([1]; first compound 0.2 µM): 0.598
- relative viability ([1]; first compound 0.6325 µM): 0.535
- relative viability ([1]; first compound 2 µM): 0.459
- relative viability ([2]; first compound 0.02 µM): 0.385
- relative viability ([2]; first compound 0.06325 µM): 0.308
- relative viability ([2]; first compound 0.2 µM): 0.317
- relative viability ([2]; first compound 0.6325 µM): 0.343
- relative viability ([2]; first compound 2 µM): 0.367
- relative viability ([3]; first compound 0.02 µM): 0.519
- relative viability ([3]; first compound 0.06325 µM): 0.516
- relative viability ([3]; first compound 0.2 µM): 0.568
- relative viability ([3]; first compound 0.6325 µM): 0.545
- relative viability ([3]; first compound 2 µM): 0.578
- relative viability ([4]; first compound 0.001 µM): 0.208
- relative viability ([4]; first compound 0.003162 µM): 0.216
- relative viability ([4]; first compound 0.01 µM): 0.219
- relative viability ([4]; first compound 0.03162 µM): 0.196
- relative viability ([4]; first compound 0.1 µM): 0.0644

Cell Line: NCI-H727
- relative viability ([1]; first compound 0.02 µM): 0.258
- relative viability ([1]; first compound 0.06325 µM): 0.184
- relative viability ([1]; first compound 0.2 µM): 0.386
- relative viability ([1]; first compound 0.6325 µM): 0.188
- relative viability ([1]; first compound 2 µM): 0.354
- relative viability ([2]; first compound 0.02 µM): 0.855
- relative viability ([2]; first compound 0.06325 µM): 0.706
- relative viability ([2]; first compound 0.2 µM): 0.992
- relative viability ([2]; first compound 0.6325 µM): 0.925
- relative viability ([2]; first compound 2 µM): 0.738
- relative viability ([3]; first compound 0.02 µM): 0.919
- relative viability ([3]; first compound 0.06325 µM): 0.931
- relative viability ([3]; first compound 0.2 µM): 0.887
- relative viability ([3]; first compound 0.6325 µM): 0.985
- relative viability ([3]; first compound 2 µM): 0.8
- relative viability ([4]; first compound 0.001 µM): 0.334
- relative viability ([4]; first compound 0.003162 µM): 0.342
- relative viability ([4]; first compound 0.01 µM): 0.353
- relative viability ([4]; first compound 0.03162 µM): 0.391
- relative viability ([4]; first compound 0.1 µM): 0.356

Cell Line: H3255
- relative viability ([1]; first compound 0.02 µM): 0.989
- relative viability ([1]; first compound 0.06325 µM): 0.987
- relative viability ([1]; first compound 0.2 µM): 1.07
- relative viability ([1]; first compound 0.6325 µM): 1.18
- relative viability ([1]; first compound 2 µM): 0.854
- relative viability ([2]; first compound 0.02 µM): 0.922
- relative viability ([2]; first compound 0.06325 µM): 0.854
- relative viability ([2]; first compound 0.2 µM): 0.902
- relative viability ([2]; first compound 0.6325 µM): 1.05
- relative viability ([2]; first compound 2 µM): 0.752
- relative viability ([3]; first compound 0.02 µM): 0.969
- relative viability ([3]; first compound 0.06325 µM): 1
- relative viability ([3]; first compound 0.2 µM): 0.841
- relative viability ([3]; first compound 0.6325 µM): 0.995
- relative viability ([3]; first compound 2 µM): 0.829
- relative viability ([4]; first compound 0.001 µM): 0.481
- relative viability ([4]; first compound 0.003162 µM): 0.482
- relative viability ([4]; first compound 0.01 µM): 0.415
- relative viability ([4]; first compound 0.03162 µM): 0.452
- relative viability ([4]; first compound 0.1 µM): 0.48

Cell Line: NCI-H838
- relative viability ([1]; first compound 0.02 µM): 1.12
- relative viability ([1]; first compound 0.06325 µM): 1
- relative viability ([1]; first compound 0.2 µM): 1.06
- relative viability ([1]; first compound 0.6325 µM): 1.13
- relative viability ([1]; first compound 2 µM): 0.891
- relative viability ([2]; first compound 0.02 µM): 0.82
- relative viability ([2]; first compound 0.06325 µM): 0.661
- relative viability ([2]; first compound 0.2 µM): 0.814
- relative viability ([2]; first compound 0.6325 µM): 0.866
- relative viability ([2]; first compound 2 µM): 0.398
- relative viability ([3]; first compound 0.02 µM): 0.973
- relative viability ([3]; first compound 0.06325 µM): 0.991
- relative viability ([3]; first compound 0.2 µM): 0.947
- relative viability ([3]; first compound 0.6325 µM): 1.06
- relative viability ([3]; first compound 2 µM): 0.955
- relative viability ([4]; first compound 0.001 µM): 0.394
- relative viability ([4]; first compound 0.003162 µM): 0.424
- relative viability ([4]; first compound 0.01 µM): 0.387
- relative viability ([4]; first compound 0.03162 µM): 0.227
- relative viability ([4]; first compound 0.1 µM): 0.182

Cell Line: NCI-H2085
- relative viability ([1]; first compound 0.02 µM): 0.977
- relative viability ([1]; first compound 0.06325 µM): 0.931
- relative viability ([1]; first compound 0.2 µM): 0.853
- relative viability ([1]; first compound 0.6325 µM): 0.813
- relative viability ([1]; first compound 2 µM): 0.871
- relative viability ([2]; first compound 0.02 µM): 0.858
- relative viability ([2]; first compound 0.06325 µM): 0.882
- relative viability ([2]; first compound 0.2 µM): 0.87
- relative viability ([2]; first compound 0.6325 µM): 0.863
- relative viability ([2]; first compound 2 µM): 0.702
- relative viability ([3]; first compound 0.02 µM): 1.07
- relative viability ([3]; first compound 0.06325 µM): 0.947
- relative viability ([3]; first compound 0.2 µM): 0.995
- relative viability ([3]; first compound 0.6325 µM): 0.871
- relative viability ([3]; first compound 2 µM): 0.917
- relative viability ([4]; first compound 0.001 µM): 0.509
- relative viability ([4]; first compound 0.003162 µM): 0.537
- relative viability ([4]; first compound 0.01 µM): 0.512
- relative viability ([4]; first compound 0.03162 µM): 0.459
- relative viability ([4]; first compound 0.1 µM): 0.519

— the supplement of paper PMC10307832
